In PubChem BioAssay AID326 (DTP/NCI, 2004):
Where “and” joins values, the source holds several entries; their conditions need not be identical. Identical values can stand only once. Toxic doses and inconclusive results are not listed. How the source made its calls: active means survival T/C of 150% or more; inactive means T/C below 125% in these data.

Test system: CD2F1 mice, P388/DHAQ leukemia ip, median survival T/C
Assay: NCI In Vivo Anticancer Drug Screen. Data for tumor model P388 Leukemia resistant to Dihydroxy Anthracenedione; NSC 299195 (intraperitoneal) in CD2F1 (CDF1) mice
Settings: endpoint: median survival time, higher = longer survival
Protocol: The antitumor activity of compounds was measured in mice bearing transplantable tumors. Survival or tumor size were measured and the results are expressed as the measurement made in the treated group (T) divided by the measurement made in the vehicle treated control group (C). The tumor model used in this assay is P388 Leukemia resistant to Dihydroxy Anthracenedione; NSC 299195 (intraperitoneal) in CD2F1 (CDF1) mice

Measured: T/C

O=P1(N(CCCl)CCCl)NCCCO1 (centres undefined)
active: dose: 32.4 mg/kg/injection, schedule: Q04DX002 (ip), vehicle: saline 189 % of control | dose: 38.9 mg/kg/injection, schedule: Q04DX003 (ip), vehicle: saline 224 % of control | dose: 43.2 mg/kg/injection, schedule: Q04DX002 (ip), vehicle: saline 203 % of control | dose: 54.0 mg/kg/injection, schedule: Q04DX002 (ip), vehicle: saline 255 % of control | dose: 64.8 mg/kg/injection, schedule: Q04DX003 (ip), vehicle: saline 353 % of control | dose: 72.0 mg/kg/injection, schedule: Q04DX002 (ip), vehicle: saline 201 % of control | dose: 90.0 mg/kg/injection, schedule: Q04DX002 (ip), vehicle: saline 336 % of control | dose: 108.0 mg/kg/injection, schedule: Q04DX003 (ip), vehicle: saline 463 % of control | dose: 120.0 mg/kg/injection, schedule: Q04DX002 (ip), vehicle: saline 223 % of control | dose: 150.0 mg/kg/injection, schedule: Q04DX002 (ip), vehicle: saline 200 % of control | dose: 200.0 mg/kg/injection, schedule: Q04DX002 (ip), vehicle: saline 380 % of control

O=C(Nc1ccc(C2=NCCCN2)cc1)c1ccc(C(=O)Nc2ccc(C3=NCCCN3)cc2)cc1
inactive: dose: 4.32 mg/kg/injection, schedule: Q04DX003 (ip), vehicle: Klucel (hydroxypropylcellulose) (HPC) 110 % of control | dose: 6.48 mg/kg/injection, schedule: Q04DX003 (ip), vehicle: Klucel (hydroxypropylcellulose) (HPC) 106 % of control | dose: 7.2 mg/kg/injection, schedule: Q04DX003 (ip), vehicle: Klucel (hydroxypropylcellulose) (HPC) 110 % of control | dose: 10.8 mg/kg/injection, schedule: Q04DX003 (ip), vehicle: Klucel (hydroxypropylcellulose) (HPC) 110 % of control and 119 % of control | dose: 12.0 mg/kg/injection, schedule: Q04DX003 (ip), vehicle: Klucel (hydroxypropylcellulose) (HPC) 112 % of control | dose: 18.0 mg/kg/injection, schedule: Q04DX003 (ip), vehicle: Klucel (hydroxypropylcellulose) (HPC) 107 % of control and 121 % of control | dose: 20.0 mg/kg/injection, schedule: Q04DX003 (ip), vehicle: Klucel (hydroxypropylcellulose) (HPC) 111 % of control | dose: 30.0 mg/kg/injection, schedule: Q04DX003 (ip), vehicle: Klucel (hydroxypropylcellulose) (HPC) 100 % of control | dose: 50.0 mg/kg/injection, schedule: Q04DX003 (ip), vehicle: Klucel (hydroxypropylcellulose) (HPC) 107 % of control

COc1ccc(CCN(C)CCCC(C#N)(c2ccc(OC)c(OC)c2)C(C)C)cc1OC (centres undefined)
inactive: dose: 16.0 mg/kg/injection, schedule: Q03HX004 (ip), vehicle: saline 100 % of control | dose: 32.0 mg/kg/injection, schedule: Q03HX004 (ip), vehicle: saline 103 % of control

O=NN(CCCl)C(=O)NC1CCCCC1
active: dose: 7.2 mg/kg/injection, schedule: Q04DX003 (ip), vehicle: saline + alcohol 192 % of control | dose: 12.0 mg/kg/injection, schedule: Q04DX003 (ip), vehicle: saline + alcohol 337 % of control | dose: 20.0 mg/kg/injection, schedule: Q04DX003 (ip), vehicle: saline + alcohol 542 % of control | dose: 33.3 mg/kg/injection, schedule: Q04DX003 (ip), vehicle: saline + alcohol 202 % of control

COc1cc([C@@H]2c3cc4c(cc3[C@@H](OC3OC5CO[C@@H](c6cccs6)OC5C(O)C3O)[C@H]3COC(=O)[C@H]23)OCO4)cc(OC)c1O (some centres undefined)
inactive: dose: 3.89 mg/kg/injection, schedule: Q04DX003 (ip), vehicle: clinical formulation 114 % of control | dose: 3.89 mg/kg/injection, schedule: Q04DX003 (ip), vehicle: saline 118 % of control | dose: 6.48 mg/kg/injection, schedule: Q04DX003 (ip), vehicle: clinical formulation 121 % of control | dose: 7.78 mg/kg/injection, schedule: Q04DX003 (ip), vehicle: saline 108 % of control | dose: 10.8 mg/kg/injection, schedule: Q04DX003 (ip), vehicle: clinical formulation 122 % of control | dose: 13.0 mg/kg/injection, schedule: Q04DX003 (ip), vehicle: saline 108 % of control | dose: 21.6 mg/kg/injection, schedule: Q04DX003 (ip), vehicle: saline 111 % of control | dose: 36.0 mg/kg/injection, schedule: Q04DX003 (ip), vehicle: saline 120 % of control
